“And” between values parts separate entries of the source, which are not always exact repeats. Equal entries are not always repeated. “Also recorded” adds a separate entry of the source. No end group written: not given here.

Results on 2 substances are retold here after patent US6964766B1, “Peptides for use in immunotherapy of autoimmune diseases” (Akzo Nobel N.V., priority 1998, dated 2005).

The subject of assay [1] is PBMC from RA patients. Description: recognition by PBMC ([3H]thymidine incorporation, stimulation index). The settings on record: Table 3b, per donor (169, 455, 447, 327). The assay is classed as cell-based, human. On the technique in general: Incorporation of labelled thymidine or its analogues reports DNA synthesis.
For assay [2], the system named is Balb/c mice. The settings on record: single injection in the chest region, μg amounts of protein in IFA; cited from earlier work.
Assay [3] has as its target T1, HLA-DRB1*0401-encoded molecules (Homo sapiens, UniProt P01903+P01911, A100K/A169T/F76Y/I96L/K127E/L162R/M171V/N62H/P40V/Q125Y/R42H/S133A/S149N/S66Y/V115G/V209L/W38E).
T1 construct: HLA-DR4 (DRB1*0401) molecules were purified from the homozygous EBV-transformed human B lymphoblastoid cell lines Huly138IC2; endogenous in cells; host or cells: homozygous EBV-transformed human B lymphoblastoid cell line Huly138IC2
Description: competition peptide HLA-DR binding assay.

The subject of assay [4] is PBMC from RA patients. Description: recognition by PBMC ([3H]thymidine incorporation, stimulation index). The assay is classed as cell-based, human. On the procedure: Peripheral blood mononuclear cells (PBMC) were isolated from heparinized peripheral blood by standard centrifugation on Ficoll-Paque (Pharmacia, Uppsala, Sweden). Cells were suspended in wells of a 24 well plate in a concentration of 5×10^5 cells per ml. Cells were incubated in medium alone or in the presence of 10 or 50 μg/ml peptide antigen (YKL-39 (266-278)). Cultures were incubated for 6 days at 37° C. in a humidified atmosphere of 5% CO2. Cells were then suspended and 100 or 150 μl volumes of medium was distributed in 4-fold in wells of a 96-well roundbottomed plate. Cells were then pulsed with 0.5 μCi (1.85×10^4 Bq) [3H]thymidine ([3H]TdR) and 18 hr later incorporated radioactivity was measured. Results as shown in table 3 are expressed as stimulation indices (SI) (antigen-specific counts/background counts).

Assay [5] has as its system HLA-DRB1*0401-restricted hybridomas specific for HC gp-39 (263-275) (8B12, 14G11, 20H5). Description: stimulation of HC gp-39 (263-275)-specific T-cell hybridomas (IL-2 production). Type of assay: cell-based, mouse. To be noted: presented by DRB1*0401 EBV-transformed B cells, 48 hr. Here is the method: To test the cross reactivity of the 3 different, HC gp39-specific hybridoma cell lines with the YKL-39 or the chitotriosidase peptide, 5×10^4 hybridoma cells and 2×10^5 irradiated (12000 RAD), EBV-transformed B cells carrying the DRB1*0401 specificity were incubated in 150 μl volumes in wells of a round-bottomed microtiter plate. Peptide antigen (HC gp-39 (263-275), YKL-39 (266-278), chitotriosidase (269-282) or a control peptide) was added in 50 μl volumes to duplicate wells. Forty-eight hr later 100 μl of the culture supernatant was assayed for IL-2 production using a sandwich ELISA with Pharmingen antibodies specific for mouse IL-2.

In assay [6] the test system is HC gp-39 (263-275) induced DTH response. Description: HC gp-39 (263-275)-specific DTH assay, tolerance induction by nasal application. The assay is classed as in vivo, Balb/c mice. The settings on record: for tolerance: intranasal pretreatment 50, 10 or 2 micrograms, sensibilisation and challenge with HC gp-39 (263-275). The source says:
FIG. 2a, 2b, 2c In vivo tolerization with HC gp-39 (263-275) or YKL-39 ([…]) • Balb/c mice were tolerized by intranasal application of 50, 10 or 2 micrograms of HC gp-39 (263-275), SEQ ID NO: 3, (FIG. 2b) or YKL-39 (266-278) (FIG. 2c) followed by immunization with HC gp-39 (263-275). Mice that were pretreated with saline or that were left untreated were included as controls (FIG. 2a).
A HC gp-39 (263-275)-specific DTH assay suitable to monitor tolerance induction with peptide antigens was developed. […] This peptide-based DTH system was used to detect modulation of the DTH response by nasal application of HC gp-39 (263-275) peptide.

For the substance “HC gp-39: human cartilage glycoprotein-39, a protein of 362 amino acids, target autoantigen in rheumatoid arthritis”, the “SI 10 μg/ml” value in assay [1] (10 μg/ml antigen) is 1 and 12 and 24 and 45. Further, in assay [1] (50 μg/ml antigen), the “SI 50 μg/ml” value is 1 and 19 and 44 and 95. The arthritogenicity entry in assay [2] is “induced a chronic joint inflammation”.
As for “HSFTLASAETTVG [YKL-39 (266-278), HSFTLASAETTVG]”, the “binding affinity to DRB1*0401 (in words)” value in assay [3] is “very high affinity”. Also, in assay [4] (RA patients), the “recognition by PBMC (in words)” value is listed as “readily recognized”. Further, the “SI 10 μg/ml” value was 9 and 15 and <2 (3×) and 4 and 3 (2×) and 19 in assay [4] (Table 3a, per donor (RA patients), 10 μg/ml peptide, 6 days, SI = antigen-specific counts/background counts); 1 and 6 and 27 and 20 in assay [4] (Table 3b, per donor (169, 455, 447, 327), 10 μg/ml antigen). Besides, the “SI 50 μg/ml” value was 9 and 4 and <2 (4×) and 27 and 25 and 58 in assay [4] (Table 3a, per donor (RA patients), 50 μg/ml peptide, 6 days); 2 and 5 and 32 and 35 in assay [4] (Table 3b, per donor (169, 455, 447, 327), 50 μg/ml antigen). In assay [4] (per donor, RA patients, SI >= 5 regarded positive), the responder / non-responder result is recorded as “R (R = responder); also recorded: NR (NR = non-responder)”. Moreover, the “activation of T-cell hybridomas, IL-2 production (in words)” value in assay [5] was “response similar to HC gp-39 (263-275)”. Also, the tolerance result is “yes” in assay [6] and “effective as a tolerogen” in assay [6] (listed as YKL-39 266-278). In assay [6] (nasal application, Balb/c mice immunised with HC gp-39 (263-275) in IFA), the “downmodulation of the DTH response (in words)” value was “more enhanced downmodulation”.
